From patent US11214803B2, “Modulators of YAP1 expression” (Ionis Pharmaceuticals, Inc., priority 2019, dated 2022)
Strand notation (5' to 3'): a small letter for the sugar, then the base; units joined by * are phosphorothioate-linked, units joined directly phosphodiester-linked; [ ] holds rarer units or linkages, { } end groups; capitals alone tell only the bases. k = constrained ethyl (cEt); [5mC] = 5-methylcytosine; d = 2'-deoxy (DNA)

Legend:
Yap1 mRNA [1] = experiment: Antisense inhibition of human Yap1 in A-431 cells by cEt gapmers, single dose (Example 1, RTS4814); format: cell-based
Procedure: Modified oligonucleotides were designed to target a Yap1 nucleic acid and were tested for their effect on Yap1 mRNA level in vitro. The modified oligonucleotides were tested in a series of experiments that had similar culture conditions. Cultured A-431 cells at a density of 5,000 cells per well were treated using free uptake with 2,000 nM of modified oligonucleotide. After a treatment period of approximately 48 hours, RNA was isolated from the cells and Yap1 mRNA levels were measured by quantitative real-time RTPCR. Human primer probe set RTS4814 (forward sequence […], designated herein as SEQ ID NO.: 11; reverse sequence […], designated herein as SEQ ID NO.: 12; probe sequence […], designated herein as SEQ ID NO.: 13) was used to measure mRNA levels. Yap1 mRNA levels were normalized to total RNA content, as measured by RIBOGREEN®. Results are presented in the tables below as percent control of the amount of Yap1 mRNA relative to untreated control cells (% UTC). The modified oligonucleotides with percent control values marked with an asterisk (*) target the amplicon region of the primer probe set. Additional assays may be used to measure the potency and efficacy of the modified oligonucleotides targeting the amplicon region.
The newly designed modified oligonucleotides in the Tables below were designed as 3-10-3 cEt gapmers. The gapmers are 16 nucleosides in length, wherein the central gap segment comprises of ten 2′-deoxynucleosides and is flanked by wing segments on the 5′ direction and the 3′ direction comprising three nucleosides each. Each nucleoside in the 5′ wing segment and each nucleoside in the 3′ wing segment has a cEt sugar modification. The internucleoside linkages throughout each gapmer are phosphorothioate (P═S) linkages. All cytosine residues throughout each gapmer are 5-methylcytosines.
“Start site” indicates the 5′-most nucleoside to which the gapmer is targeted in the human gene sequence. “Stop site” indicates the 3′-most nucleoside to which the gapmer is targeted human gene sequence. […] Activity of the modified oligonucleotide may be defined in a different experiment.

Yap1 mRNA [2] = experiment: Dose-dependent inhibition of human Yap1 in A-431 cells (Example 6, 5,000 cells per well, RTS4814); format: cell-based; conditions: for % UTC 148 nM / % UTC 444 nM / % UTC 1333 nM / % UTC 4000 nM: approximately 48 hours; for Yap1 mRNA, % UTC: 48 hours
Procedure: Modified oligonucleotides described in the studies above were tested at various doses in A-431 cells. Cultured A-431 cells at a density of 5,000 cells per well were treated using free uptake with modified oligonucleotides diluted to concentrations described in the tables below. After approximately 48 hours, Yap1 mRNA levels were measured as previously described using the Human Yap1 primer-probe set RTS4814. Yap1 mRNA levels were normalized to total RNA content, as measured by RIBOGREEN®. Results are presented in the tables below as percent control of the amount of Yap1 mRNA relative to untreated control cells (% UTC). IC50s were calculated using a linear regression on a log/linear plot of the data in excel.

[3] = Table 2, A-431 cells, free uptake, 2,000 nM, approximately 48 hours, RTS4814, Yap1 mRNA relative to untreated control cells
[4] = A-431 cells, 5,000 cells per well, free uptake, 2,000 nM modified oligonucleotide, approx. 48 hours, RTS4814, normalized to RIBOGREEN, Table 3
[5] = Table 1, A-431 cells, free uptake, 2,000 nM, approximately 48 hours, RTS4814, Yap1 mRNA relative to untreated control cells
[6] = Table 54, A-431 cells, Yap1 mRNA, linear regression on a log/linear plot
[7] = Table 54, A-431 cells, free uptake, 148 nM, RTS4814
[8] = Table 54, A-431 cells, free uptake, 444 nM, RTS4814
[9] = Table 54, A-431 cells, free uptake, 1333 nM, RTS4814
[10] = Table 54, A-431 cells, free uptake, 4000 nM, RTS4814
[11] = Table 53, A-431 cells, Yap1 mRNA, linear regression on a log/linear plot
[12] = Table 53, A-431 cells, free uptake, 148 nM, RTS4814
[13] = Table 53, A-431 cells, free uptake, 444 nM, RTS4814
[14] = Table 53, A-431 cells, free uptake, 1333 nM, RTS4814
[15] = Table 53, A-431 cells, free uptake, 4000 nM, RTS4814

Substance: 715569 (k[5mC]*kA*kA*dA*dG*dG*dT*dA*dG*dG*dA*dT*dA*kA*kA*kT; antisense) [Compound 715569]
- YAP1 (% UTC) (Yap1 mRNA [1]; [3]): 122 % UTC

Substance: 715435 (antisense kG*kG*kT*d[5mC]*dT*dT*dG*dT*dT*d[5mC]*dT*dT*dA*kT*kG*kG) [Compound 715435]
- YAP1 (% UTC) (Yap1 mRNA [1]; [4]): 36 % UTC

Substance: 715574 (kT*kA*k[5mC]*d[5mC]*dA*dA*dA*dA*d[5mC]*dG*dA*dG*dG*kG*kT*k[5mC]; antisense) [Compound 715574]
- YAP1 (% UTC) (Yap1 mRNA [1]; [5]): 118 % UTC

Substance: 715480 (antisense kG*kG*kA*dA*dA*d[5mC]*d[5mC]*dA*dT*dT*dA*dT*dT*kA*k[5mC]*kT) [Compound 715480]
- YAP1 (% UTC) (Yap1 mRNA [1]; [4]): 23 % UTC

Substance: 715608 (antisense kA*kA*kT*dT*dG*dT*dA*dT*d[5mC]*d[5mC]*dA*dG*dA*k[5mC]*kA*kT) [Compound 715608]
- YAP1 (% UTC) (Yap1 mRNA [1]; [3]): 100 % UTC

Substance: 715438 (antisense kT*kT*k[5mC]*dA*dT*dG*dG*d[5mC]*dA*dA*dA*dA*d[5mC]*kG*kA*kG) [Compound 715438]
- YAP1 (% UTC) (Yap1 mRNA [1]; [4]): 82 % UTC

Substance: 715456 (antisense kA*kG*kT*dG*dA*dT*dA*dG*dG*dT*dG*d[5mC]*d[5mC]*kA*k[5mC]*kT) [Compound 715456]
- YAP1 (% UTC) (Yap1 mRNA [1]; [4]): 96 % UTC

Substance: 715429 (k[5mC]*k[5mC]*kT*dG*dA*dG*dT*d[5mC]*dA*dT*dG*dG*d[5mC]*kT*kT*kG; antisense) [Compound 715429]
- YAP1 (% UTC) (Yap1 mRNA [1]; [4]): 62 % UTC

Substance: 715580 (kG*k[5mC]*k[5mC]*dT*dG*dT*d[5mC]*dT*dG*dG*dA*dA*dT*kA*k[5mC]*kA; antisense) [Compound 715580]
- YAP1 (% UTC) (Yap1 mRNA [1]; [5]): 101 % UTC

Substance: 715529 (kT*kG*kA*dA*dA*d[5mC]*d[5mC]*dT*dG*dA*dT*d[5mC]*d[5mC]*kT*kT*kT; antisense) [Compound 715529]
- YAP1 (% UTC) (Yap1 mRNA [1]; [5]): 148 % UTC

Substance: 715614 (antisense kA*kA*kA*dT*dT*dA*d[5mC]*dT*dT*dT*dA*dA*dG*k[5mC]*k[5mC]*kA) [Compound 715614]
- YAP1 (% UTC) (Yap1 mRNA [1]; [3]): 110 % UTC

Substance: 715509 (antisense kT*kG*k[5mC]*dT*dG*dT*dG*d[5mC]*dT*dG*dG*dG*dA*kT*kT*kG) [Compound 715509]
- YAP1 (% UTC) (Yap1 mRNA [1]; [3]): 42 % UTC

Substance: 715633 (kG*kT*kG*dA*dT*dA*dG*dG*dT*dG*d[5mC]*d[5mC]*dA*k[5mC]*kT*kA; antisense) [Compound 715633]
- YAP1 (% UTC) (Yap1 mRNA [1]; [4]): 78 % UTC

Substance: 715497 (antisense kA*kA*k[5mC]*d[5mC]*d[5mC]*dT*dT*dG*dA*dA*dA*dA*dT*kA*kA*kG) [Compound 715497]
- YAP1 (% UTC) (Yap1 mRNA [1]; [3]): 155 % UTC

Substance: 715453 (antisense kA*kG*kG*dT*dG*d[5mC]*d[5mC]*dA*d[5mC]*dT*dG*dT*dT*kA*kA*kG) [Compound 715453]
- YAP1 (% UTC) (Yap1 mRNA [1]; [4]): 59 % UTC

Substance: 715435 (kG*kG*kT*d[5mC]*dT*dT*dG*dT*dT*d[5mC]*dT*dT*dA*kT*kG*kG; antisense) [compound 715435]
- IC50 (Yap1 mRNA [2]; [6]): 3.4 µM
- % UTC 148 nM (Yap1 mRNA [2]; [7]): 80 % UTC
- % UTC 444 nM (Yap1 mRNA [2]; [8]): 67 % UTC
- % UTC 1333 nM (Yap1 mRNA [2]; [9]): 61 % UTC
- % UTC 4000 nM (Yap1 mRNA [2]; [10]): 48 % UTC

Substance: 715478 (kA*k[5mC]*k[5mC]*dA*dT*dT*dA*dT*dT*dA*d[5mC]*dT*d[5mC]*k[5mC]*kT*kG; antisense) [compound 715478]
- IC50 (Yap1 mRNA [2]; [11]): 0.4 µM
- % UTC 148 nM (Yap1 mRNA [2]; [12]): 70 % UTC
- % UTC 444 nM (Yap1 mRNA [2]; [13]): 47 % UTC
- % UTC 1333 nM (Yap1 mRNA [2]; [14]): 29 % UTC
- % UTC 4000 nM (Yap1 mRNA [2]; [15]): 16 % UTC
- IC50 (Yap1 mRNA [2]; [6]): 0.6 µM
- % UTC 148 nM (Yap1 mRNA [2]; [7]): 72 % UTC
- % UTC 444 nM (Yap1 mRNA [2]; [8]): 59 % UTC
- % UTC 1333 nM (Yap1 mRNA [2]; [9]): 31 % UTC
- % UTC 4000 nM (Yap1 mRNA [2]; [10]): 18 % UTC
- Yap1 mRNA, % UTC (Yap1 mRNA [2]; Table 55, 148 nM, free uptake, A-431 cells 5,000 cells per well, RTS4814): 76 % UTC
- Yap1 mRNA, % UTC (Yap1 mRNA [2]; Table 55, 444 nM, free uptake, A-431 cells 5,000 cells per well, RTS4814): 56 % UTC
- Yap1 mRNA, % UTC (Yap1 mRNA [2]; Table 55, 1333 nM, free uptake, A-431 cells 5,000 cells per well, RTS4814): 32 % UTC
- Yap1 mRNA, % UTC (Yap1 mRNA [2]; Table 55, 4000 nM, free uptake, A-431 cells 5,000 cells per well, RTS4814): 18 % UTC
- IC50 (Yap1 mRNA [2]; Table 55, A-431 cells 5,000 cells per well, free uptake, RTS4814): 0.6 µM

Substance: 715490 (k[5mC]*k[5mC]*kA*dA*d[5mC]*dT*dA*dT*dT*dA*d[5mC]*dT*dT*k[5mC]*kA*kT; antisense) [compound 715490]
- IC50 (Yap1 mRNA [2]; [11]): 4.1 µM
- % UTC 148 nM (Yap1 mRNA [2]; [12]): 98 % UTC
- % UTC 444 nM (Yap1 mRNA [2]; [13]): 89 % UTC
- % UTC 1333 nM (Yap1 mRNA [2]; [14]): 76 % UTC
- % UTC 4000 nM (Yap1 mRNA [2]; [15]): 43 % UTC
